Literature values, collected in patent US11173114B1, “Method and system for manufacturing and oral soluble films and oral soluble films made by thereby” (NOVA Thin Film Pharmaceuticals LLC, priority 2020, dated 2021).
Read-outs that look alike come from different tables or passages of the source.

SMILES: O [Water]
- Surface tension (head printed □) (25 ° C.): 71.97 mN/m
- Surface tension (head printed □) (40 ° C.): 69.56 mN/m
- Surface tension (head printed □) (80 ° C.): 62.6 mN/m
